Laboratory results reported in article PMC8692498, “Synthesis and multifaceted pharmacological activity of novel quinazoline NHE-1 inhibitors” (Scientific Reports, 2021).
“Also recorded” adds a separate entry of the source.

What was measured:
[1] = biological target: T1, NHE-1 (Oryctolagus cuniculus, UniProt P23791); experiment: NHE-1 inhibition assay on rabbit platelets (platelet shape change after acidification with sodium propionate, laser aggregometer); assay type: cell-based; settings: 10 nM, rabbit platelet-rich plasma, decimal commas; read-out: NHE-1 inhibition at 10 nM, m ± SD, n = 6 (%)
T1 construct: endogenous in cells; host or cells: rabbit platelets in platelet-rich plasma (male rabbits)
T1 sequence (P23791 whole entry): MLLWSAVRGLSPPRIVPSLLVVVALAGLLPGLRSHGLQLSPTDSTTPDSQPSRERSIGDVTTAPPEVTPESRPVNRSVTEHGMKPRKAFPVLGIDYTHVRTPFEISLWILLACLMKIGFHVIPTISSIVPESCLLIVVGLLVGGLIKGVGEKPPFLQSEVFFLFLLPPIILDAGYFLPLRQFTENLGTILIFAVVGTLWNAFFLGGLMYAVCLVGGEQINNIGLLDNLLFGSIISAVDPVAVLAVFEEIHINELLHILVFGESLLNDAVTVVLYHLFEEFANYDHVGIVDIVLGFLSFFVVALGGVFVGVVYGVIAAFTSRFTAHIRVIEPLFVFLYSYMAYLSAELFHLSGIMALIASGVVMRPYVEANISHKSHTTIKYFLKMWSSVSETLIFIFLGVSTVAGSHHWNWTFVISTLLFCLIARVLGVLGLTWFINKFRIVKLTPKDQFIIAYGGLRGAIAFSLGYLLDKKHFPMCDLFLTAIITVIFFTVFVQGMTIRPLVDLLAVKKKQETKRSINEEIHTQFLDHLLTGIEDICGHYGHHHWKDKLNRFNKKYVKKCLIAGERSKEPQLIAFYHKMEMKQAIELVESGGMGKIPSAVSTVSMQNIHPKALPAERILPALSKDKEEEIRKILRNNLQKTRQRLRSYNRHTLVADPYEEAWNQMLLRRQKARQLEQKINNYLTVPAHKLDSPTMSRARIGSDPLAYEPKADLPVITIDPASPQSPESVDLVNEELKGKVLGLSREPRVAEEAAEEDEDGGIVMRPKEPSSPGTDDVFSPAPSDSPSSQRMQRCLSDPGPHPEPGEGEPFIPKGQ
Method: Evaluation of NHE-1 inhibition was carried out on rabbit platelets by the known method[39],[40]. The experiments were carried out on 15 male rabbits weighing 3.0-4.0 kg. Platelet-rich plasma (PRP) was obtained by centrifuging blood with 3.8% sodium citrate (1:10) at 1000 rpm for 12 min (Multi centrifuge CM 6M, Latvia). Platelet shapeshifting due to acidification was followed with a laser aggregometer BIOLA-220 LA (Russia). Test compounds (10 μl, 10 nM final concentration) were added to 200 μl of PRP 5 min in a cuvette before the addition of sodium propionate solution, incubated with constant stirring using a magnetic stirrer (800 rpm, 37 °C). To control samples for NHE-1 activation, a buffer solution containing sodium propionate was added to 200 μL of PRP (600 μL, 135 mM sodium propionate, 20 mM HEPES, 1 mM CaCI2, 1 mM MgCI2, 10 mM glucose; pH 6.7). The change in light transmission at pH 7.4, 37 °C was monitored in a Krebs solution (600 μL, 120 mM NaCl, 4.8 mM KCl, 1.2 mM KH2PO4, 2.5 mM MgSO4, 25 mM NaHCO3, 2.6 mM CaCl2, 5.4 mM glucose; pH 7.4). Test compounds were added to a final concentration of 10 nM to the cuvette into 200 μl of PRP 5 min before adding the sodium propionate solution, incubated with constant stirring using a magnetic stirrer (800 rpm, 37 °C). NHE-1 inhibitors zoniporide, rimeporide, amiloride were used as reference drugs. Assays were run in 6 independent series.

[2] = system: IL-6 secretion; experiment: Interleukin-6 secretion (ELISA) from LPS-stimulated peritoneal macrophages; assay type: cell-based, mice; settings: male, C57BL/6J, mouse, primary peritoneal macrophages stimulated with LPS; CC50 versus IC50 of IL-6 secretion; read-out: selectivity of IL-6 inhibition over cytotoxicity
Method: (§1) Peritoneal macrophages (PM) were isolated from the peritoneal exudate of 30 male C57bl/6j mice. To accumulate PM, 1 ml of 3% peptone solution was injected intraperitoneally. After 3 days the mice were euthanized by cervical dislocation. Cells of peritoneal exudate were obtained by aseptically washing the abdominal cavity with 5 ml of sterile Hanks’s solution (+ 4-6 °C) without calcium and magnesium ions. The total number and viability of cells were assessed in a Goryaev counting chamber (Russia) with a 0.4% trypan blue staining (Sigma-Aldrich, USA). The cell concentration was adjusted to 1.0×10^6 cells/ml in DMEM (Gibco) supplemented with 2 mM L-glutamine (Gibco), 10% heat-inactivated fetal bovine serum (BioClot, Germany), 100 U/ml penicillin and […] streptomycin (Gibco) and plated 200 μl/well in 96-well transparent plates (SPL Life Sciences Co., Ltd., Korea). It was left for 2 h at 37°C in a humidified atmosphere with 5% CO2, after which the wells were washed to remove non-adherent cells. After 24 hours of incubation, 20 μl of the supernatant was removed and 20 μl of solutions of test compounds were added 30 min before E. coli O127:B8 LPS (100 ng/ml final concentration). Experiments were run in 3 independent replicates.
(§2) Cell supernatant was collected and centrifuged at 1000 g for 20 min in a 2-16PK Sigma centrifuge (Germany). The concentration of IL-6 was determined by ELISA using a commercial kit (Cloud-clone ELISA kit) with a microplate reader Infinite M200 PRO (Tecan, Austria).

[3] = system: primary peritoneal macrophages of C57BL/6J mice; experiment: as above; assay type: cell-based
Method: as §1, §2

[4] = Cytotoxicity study (LDH activity in the medium) in peritoneal macrophages; assay type: cell-based; settings: male, C57BL/6J, mouse, primary peritoneal macrophages; murine peritoneal macrophages, LDH
Method: as §1
(§3) The activity of lactate dehydrogenase (LDH) in a cell culture medium served as a marker of membrane permeability and cell death. Aliquotes of supernatants were taken after 24 h of inoculation with test compounds, mixed with 250 μl of […] NADH solution in 54 mM phosphate buffered saline (pH 7.5). Then, 25 μl of a 6.48 mM pyruvate solution was added to the mixture. The optical density was followed at a wavelength of 340 nm for 20 min. Conversion of optical density into cell viability was carried out according to a standard curve (DMSO-treated cells as 100% and 0.01% Triton X-100-treated cells as 0% viable cells).

[5] = system: ICR mice; experiment: Tail suspension test (antidepressant activity); assay type: in vivo; settings: intragastrically 30 min before test, dose equimolar to 2.6 mg/kg amiloride
Method: The experiment was carried out on 36 male ICR mice weighing 22-25 g, divided into groups of 6 animals each under room lighting (300 lux). […] In experiments, test substances were administered intragastrically 30 min before the start of the test. Experimental groups received test compounds in an equimolar dose to the comparison drug amiloride. Animals of the remaining groups were treated with 2.6 mg/kg amiloride, 10 mg/kg amitriptyline, or 8 mg/kg imipramine. Distilled water was administered to the control group. The time of immobilization of the animals was recorded.

[6] = system: primary peritoneal macrophages of C57BL/6J mice; experiment: Nitric oxide synthesis (nitrite, Griess reagent) in LPS-stimulated peritoneal macrophages; assay type: cell-based; settings: 100 μM
Method: as §1
The accumulation of nitrite anion (a stable end product of NO decomposition produced by iNOS) in supernatants was determined using a standard Griess reagent. Briefly, 50 μl of supernatants collected 22 hours after incubation of PM with test and control compounds were mixed with 50 μl of 1% sulfonamide in 2.5% H3PO4 and 50 μl of 0.1% N-(1-naphthyl) ethylenediamine in 2,5% H3PO4. After incubation at 23 °C for 10 min in an orbital shaker, the optical density was determined at a wavelength of 550 nm with a microplate reader Infinite M200 PRO (Tecan, Austria).

[7] = system: primary peritoneal macrophages of C57BL/6J mice; experiment: Cytotoxicity study (LDH activity in the medium) in peritoneal macrophages; assay type: cell-based; settings: 100 μM, peritoneal macrophages
Method: as §1, §3

[8] = system: rabbit platelets; experiment: ADP-induced platelet aggregation assay in rabbit platelet-rich plasma; assay type: cell-based; settings: 100 μM, ADP 5 μM
Method: Functional activity of platelets was determined on a two-channel laser analyzer of platelet aggregation "BIOLA-220 LA" (Russia) as described previously. The experiments were carried out on 6 male rabbits weighing 3.5–4 kg. To prepare platelet-rich plasma (PRP) venous blood was taken from the ear marginal vein of a rabbit, stabilized with a 3.8% sodium citrate solution in a ratio of 9:1 and centrifuged for 10 min at 1500 rpm. PRP (300 μL) and a solution of the test compound at a concentration of 100 μM were sequentially introduced into the cell of the aggregometer. The samples were incubated in thermostated cells of the aggregometer at 37 °C for 5 min. To induce aggregation adenosine-5-diphosphoric acid (ADP, Sigma, USA) at a final concentration of 5 μM, was added to the cuvette. Acetylsalicylic acid (Shandong Xinhua Pharmaceutical Co., Ltd., China) was used as a reference drug. Experiments were run in 5 independent replicates.

[9] = system: advanced glycation products from bovine serum albumin and glucose; experiment: Antiglycating activity (AGE fluorescence, bovine serum albumin and glucose); assay type: biochemical; settings: BSA 1 mg/ml, glucose 0.36 M, 60 °C, 24 hrs; read-out: IC50 of formation of advanced glycation products
Method: The glycation reaction was modeled using 1 mg/ml bovine serum albumin (Chemmed, Russia) and 0.36 M glucose (Vekton, Russia) in 50 mM phosphate buffer solution (PBS, pH 7.4) at 60 °C. After 24 hrs, albumin was precipitated using trichloroacetic acid (10% final concentration) and centrifugation (15 000 rpm, 4 min). The supernatant was removed by aspiration, and the residue was dissolved in 50 mM PBS (pH 10.5). Aliquots of 300 µl were transferred to a black flat-bottom 96-well microplate. AGE fluorescence was registered using Infinite M200 Pro (Tecan, Austria) microplate reader at excitation/emission wavelengths of 370/440 nm. Signals were normalized using blank samples containing BSA and the test compound in the appropriate concentration without the glucose. When normalized, the activity is expressed as the AGE fluorescence coefficient, determined by the formula: Flu=10^log10A-log10B-1, where A and B correspond to the absolute fluorescence values of the glucose-containing and mean glucose-free sample.
Activity percentage was calculated using the formula: A%=1-FluSample/FluControl×100%, where Flu(Sample) and Flu(Control) correspond to the normalized fluorescence coefficients of experimental and control samples. Experiments were run in 5 independent replicates.

Compound	inhibition at 0.01 µM [1]	selectivity ratio [2]	secretion of interleukin 6 ([3]; LPS-stimulated macrophages, screening (Fig. 4))	IC50 ([3]; Mus musculus, Peritoneal macrophage, LPS-stimulated murine macrophages, read-out: IC50 of IL-6 synthesis/secretion)	CC50 at 24 h [4]	antidepressant activity [5]	melting point	inhibition of the synthesis of nitric oxide [6]	effect on cell viability [7]	antiplatelet activity versus acetylsalicylic acid [8]	IC50 [9]
Nc1nnc(Cn2c(=O)c3ccccc3n(Cc3ccccc3)c2=O)[nH]1 [Compound 3i, 3-[(5-Amino-4H-1,2,4-triazol-3-yl)methyl]-1-benzylquinazoline-2,4(1H,3H)-dione]	12.9%	4 to 6	suppressed	24.1 µM	146 µM	antidepressant activity similar to amiloride; also recorded: antidepressant activity comparable with amiloride	262 to 265 °C	–	–	–	–
Nc1nc(Cn2cnc3ccc(Br)cc3c2=O)n[nH]1 [Compound 6b, 3-[(5-Amino-1H-1,2,4-triazol-3-yl)methyl]-6-bromoquinazolin-4(3H)-one]	25.8%	–	–	–	–	–	–	statistically significantly inhibit	absence of a statistically significant effect on cell viability	exceeded the activity of the reference drug, acetylsalicylic acid	506 µM
N=C(N)NN [aminoguanidine, reference compound]	–	–	–	–	–	–	–	–	–	–	4520 µM
